The values that follow come from patent publication US20040106172A1, “Hydrolyzing/dehydration condensing enzymes, method for producing the enzyme and method for synthesizing amide by using the enzyme” (Okayama University, priority 2002, published 2004).

Data set [1] has as its system purified enzyme (capsaicin hydrolysis activity). Kind of data set: Effects of various reagents upon enzymatic activity (capsaicin hydrolysis). The data set is classed as biochemical, Streptomyces mobaraensis IFO 13819.
In data set [2] the test system is Urethane hydrolase IV (strain F-86). The following applies: cited from earlier work.
Data set [3] has as its system Streptomyces mobaraensis (enzyme according to the invention). The data set is described as follows: Hydrolysis of N-benzyloxycarbonyl-L-amino acids by the enzyme of the invention. The data set is classed as biochemical. As for the experimental part: An ability of hydrolyzing/dehydration condensing by the enzyme according to the invention is examined by using N-benzyloxycarbonyl-L-amino acid (Z-L-amino acid) as an amide. The reaction is performed by using […] of the enzyme in 0.2 ml of 50 mM tris-hydrochloric acid buffer solution containing 0.1 mM of CoCl2 as a solvent (pH: 7.5) under a condition that a final concentration of N-benzyloxycarbonyl-L-amino acid is 10 mM at 37° C. for 30 minutes (Z-L-Phe and Z-L-Tyr) or 1 hour (the other Z-L-amino acids).

Data set [4] relates to Capsaicin hydrolyzing/dehydration condensing enzyme of the invention. The following applies: fatty acid as substrate with vanillylamine; water/n-hexane two-phase system, 37° C.; HPLC of hexane phase. As to the method: (§1) The reaction temperature is 37° C.
(§2) As a comparative example, aminoacylase is used. The resulting capsaicin analog is quantitatively measured by HPLC analysis of the hexane phase.

The test system of data set [5] is Streptomyces mobaraensis (enzyme according to the invention). The data set is described as follows: Hydrolysis of antibiotic substances having an amide bond by the enzyme of the invention. The data set is classed as biochemical. The following applies: for hydrolyzing activity for the substrate: 10 mM antibiotic, pH 7.5, 37° C., 2 minutes, 0.1 mM CoCl2, 1 Unit = 1 μmol substrate hydrolyzed in 1 hour; for Activity kcat (approximate value): substrate of the enzyme according to the invention. As for the experimental part: The enzyme is examined on the hydrolysis of an antibiotic substance having an amide bond. As the antibiotic substance are used Penicillin G, Penicillin V and Ampicillin, respectively. The reaction is carried out at 37° C. for 2 minutes by using 20 μg of the enzyme in 0.1 ml of 50 mM tris-hydrochloric acid buffer solution containing 0.1 mM of CoCl2 as a solvent (pH: 7.5) under a condition that a final concentration of the antibiotic substance is 10 mM.
As a result, if the hydrolyzing activity for capsaicin at pH of 7.5 is 200 U/mg (Unit is defined as an amount of the enzyme required for hydrolyzing 1 μmol of the substrate at 37° C. for 1 hour), the activities for Penicillin G, Penicillin V and Ampicillin are 2200 U, 6000 U and 1000 U, respectively.
In order to show the utility of the enzyme according to the invention, it is compared with the existing Penicillin Vacylase originated from Streptomyces lavendulae (Raquel Torres-Guzman et al., Biochemical and Biophysical Research Communications, Vol. 291, 593-0597 (2002)) (compared with activity kcat (1/s)).

The subject of data set [6] is Penicillin Vacylase originated from Streptomyces lavendulae. Conditions: cited from earlier work; for Activity kcat: substrate of Streptomyces lavendulae Penicillin V acylase, Torres-Guzman et al. 2002.
Data set [7] in a line: pH dependency, heat stability and temperature dependency of the purified enzyme. The data set is classed as physicochemical, Streptomyces mobaraensis IFO 13819.
In a further data set the test system is Aminoacylase. Kind of data set: Synthesis of capsaicin analogs from vanillylamine and fatty acids, comparative aminoacylase. The data set is classed as biochemical. The following applies: comparative example; fatty acid as substrate with vanillylamine; water/n-hexane two-phase system, 37° C.; HPLC of hexane phase. As for the experimental part: as §1, §2
Where [8] appears, read: reagent 1 mM, 0.13 mM capsaicin/50 mM tris-HCl (pH 7.5), control = 100.
The mark [9] stands for this setting: 10 mM Z-L-amino acid, pH 7.5, 37° C., 0.1 mM CoCl2.

Like-named read-outs stand apart in the source and are kept apart here.

On to `NC(=O)CI` [Idoacetoamide], for which, in data set [1] (setting [8]), the Relative activity came to 86.5%.

Consider `CSCCC(NC(=O)OCc1ccccc1)C(=O)O` (stereo not shown) [Z-Met], for which the “Activity for the substrate” value in data set [2] (Matsumura et al. 1985) is reported as 294 Unit/mg; in data set [3] (setting [9]), 85 Unit/mg.

Regarding `O=C(O)CNC(=O)OCc1ccccc1` [Z-Gly], the “Activity for the substrate” value in data set [2] (Matsumura et al. 1985) is 108 Unit/mg; in data set [3] (setting [9]), 0 Unit/mg.

For the compound `O=C(NC(Cc1cnc[nH]1)C(=O)O)OCc1ccccc1` (stereo not shown) [Z-His], the “Activity for the substrate” value is listed as 18 Unit/mg in data set [2] (Matsumura et al. 1985) and 36 Unit/mg in data set [3] (setting [9]).

`CCCCCCCCCCCCCC(=O)O` [Myristic acid]: the “Synthesis of capsaicin analogs” value in data set [4] is 0.24 mM.

`N[C@@H](CS)C(=O)O` [L-Cys]: in data set [1] (setting [8]), the Relative activity worked out at 101.2%.

`O=S(=O)([O-])[O-].[Fe+2]` [FeSO4]: in data set [1] (setting [8]), the Relative activity worked out at 88.8%.

For `O=C(O)CC[C@H](NC(=O)OCc1ccccc1)C(=O)O` [Z-Glu], the results for the “Activity for the substrate” value in data set [2] (Matsumura et al. 1985) and in data set [3] (setting [9]) were 246 Unit/mg and 12 Unit/mg, respectively.

For `CCC(C)C(NC(=O)OCc1ccccc1)C(=O)O` (stereo not shown) [Z-Ile], the “Activity for the substrate” value in data set [2] (Matsumura et al. 1985) is 18 Unit/mg; in data set [3] (setting [9]), 28 Unit/mg.

In the case of `O=C(N[C@@H](Cc1ccccc1)C(=O)O)OCc1ccccc1` [Z-Phe], the “Activity for the substrate” value in data set [2] (Matsumura et al. 1985) is given as 54 Unit/mg; in data set [2], “lower activity”; in data set [3] it was “high activity”; in data set [3] (setting [9]), 470 Unit/mg.

Regarding `N=C(N)NCCC[C@H](NC(=O)OCc1ccccc1)C(=O)O` [Z-Arg], the “Activity for the substrate” value is 0 Unit/mg in data set [2] (Matsumura et al. 1985) and 37 Unit/mg in data set [3] (setting [9]).

Consider `C[C@H](NC(=O)OCc1ccccc1)C(=O)O` [Z-Ala], for which the figures for the “Activity for the substrate” value in data set [2] (Matsumura et al. 1985) and in data set [3] (setting [9]) were 228 Unit/mg and 29 Unit/mg, respectively.

Consider `O=C(O)C[C@H](NC(=O)OCc1ccccc1)C(=O)O` [Z-Asp], for which the “Activity for the substrate” value in data set [2] (Matsumura et al. 1985) is on record as 360 Unit/mg.

Regarding `NCCCC[C@H](NC(=O)OCc1ccccc1)C(=O)O` [Z-Lys], the “Activity for the substrate” value in data set [2] (Matsumura et al. 1985) is 0 Unit/mg; in data set [3] (setting [9]), 38 Unit/mg.

Turning to `[Ca+2].[Cl-].[Cl-]` [CaCl2], the Relative activity in data set [1] (setting [8]) came to 101.6%.

`O=C(O)c1cc[c]([Hg][Cl])cc1` [PCMB]: in data set [1] (setting [8]), the Relative activity came out at 96.6%.

In the case of `O=C(O)CN(CCN(CC(=O)O)CC(=O)O)CC(=O)O` [EDTA], in data set [1] (pH 7.5), the Relative activity is listed as 85.5%.

Regarding `COc1cc(CNC(=O)CCCC/C=C/C(C)C)ccc1O` [capsaicin], in data set [5] (pH 7.5, reference value for the antibiotic activities), the “hydrolyzing activity for capsaicin” value worked out at 200 U/mg.

For the compound `CC1(C)S[C@@H]2[C@H](NC(=O)[C@H](N)c3ccccc3)C(=O)N2[C@H]1C(=O)O` [Ampicillin], in data set [6], the “Activity for the substrate” value is recorded as “hardly an activity” and the Activity kcat was 0 s⁻¹. In addition, in data set [5], the “Activity for the substrate” value is “excellent activity”, the “hydrolyzing activity for the substrate” value came to 1000 U and the “Activity kcat (approximate value)” value is greater than 17 s⁻¹.

As to `[Cl-].[Cl-].[Co+2]` [CoCl2], in data set [7], the “residual activity with added cobalt ion vs no cobalt ion” value is listed as “higher”. Further, the “effect on capsaicin hydrolysis activity of the purified enzyme” value in data set [1] is “enhanced”. Moreover, in data set [1] (pH 7.5), the Relative activity was determined as 145.5%.

Regarding `N[C@@H](CCC(=O)N[C@@H](CS)C(=O)NCC(=O)O)C(=O)O` [GSH], the Relative activity in data set [1] (setting [8]) was determined as 99.8%.

As for `C[C@@H](O)[C@H](NC(=O)OCc1ccccc1)C(=O)O` [Z-Thr], the “Activity for the substrate” value is 162 Unit/mg in data set [2] (Matsumura et al. 1985) and 4.5 Unit/mg in data set [3] (setting [9]).

Turning to `[Cl-].[Cl-].[Zn+2]` [ZnCl2], in data set [1] (setting [8]), the Relative activity stood at 95.5%.

Take `O=[N+]([O-])[O-].[Ag+]` [AgNO3]: the Relative activity in data set [1] (setting [8]) is 100.1%.

As for `O=S(=O)([O-])[O-].[Mg+2]` [MgSO4], the Relative activity in data set [1] (setting [8]) was 96.0%.

Regarding `CC1(C)S[C@@H]2[C@H](NC(=O)COc3ccccc3)C(=O)N2[C@H]1C(=O)O` [Penicillin V], the Activity kcat in data set [6] is 60.25 s⁻¹. Moreover, in data set [5], the “hydrolyzing activity for the substrate” value is 6000 U and the “Activity kcat (approximate value)” value was greater than 80 s⁻¹.

For the compound (NH4)6Mo7O24, the Relative activity in data set [1] (setting [8]) stood at 88.7%.

With `O=C(NC(CSCc1ccccc1)C(=O)O)OCc1ccccc1` (stereo not shown) [Cys(Bzl)], the “Activity for the substrate” value in data set [2] (Matsumura et al. 1985) was 228 Unit/mg; in data set [3] (setting [9]), 250 Unit/mg.

Regarding `NC(=O)C[C@H](NC(=O)OCc1ccccc1)C(=O)O` [Z-Asn], the “Activity for the substrate” value is recorded as 138 Unit/mg in data set [2] (Matsumura et al. 1985) and 12 Unit/mg in data set [3] (setting [9]).

`CC1(C)S[C@@H]2[C@H](NC(=O)Cc3ccccc3)C(=O)N2[C@H]1C(=O)O` [Penicillin G]: in data set [6], the “Activity for the substrate” value is “hardly an activity” and the Activity kcat is 3.4 s⁻¹. In data set [5], the “Activity for the substrate” value is recorded as “excellent activity”, the “hydrolyzing activity for the substrate” value was found to be 2200 U and the “Activity kcat (approximate value)” value is greater than 50 s⁻¹.

Take `O[C@@H](CS)[C@@H](O)CS` [DTT]: the Relative activity in data set [1] (setting [8]) came to 79.8%.

Turning to `CC(C)C[C@H](NC(=O)OCc1ccccc1)C(=O)O` [Z-Leu], the “Activity for the substrate” value is on record as 1668 Unit/mg in data set [2] (Matsumura et al. 1985) and 100 Unit/mg in data set [3] (setting [9]).

Consider `CC(C)C(NC(=O)OCc1ccccc1)C(=O)O` (stereo not shown) [Z-Val], for which the results for the “Activity for the substrate” value in data set [2] (Matsumura et al. 1985) and in data set [3] (setting [9]) were 84 Unit/mg and 43 Unit/mg, respectively.

In the case of `NC(=O)CC[C@H](NC(=O)OCc1ccccc1)C(=O)O` [Z-Gln], the “Activity for the substrate” value is reported as 144 Unit/mg in data set [2] (Matsumura et al. 1985) and 27 Unit/mg in data set [3] (setting [9]).

As to `CCCCCCCCCCCC(=O)O` [Lauric acid], the “Synthesis of capsaicin analogs” value is recorded as 0.051 mM in the data set on Aminoacylase and 1.25 mM in data set [4].

With `OCCS` [β-mercaptoethanol], in data set [1] (reagent 10 mM, 0.13 mM capsaicin/50 mM tris-HCl (pH 7.5), control = 100), the Relative activity is reported as 79.3%.

With `O=C(N[C@@H](Cc1ccc(O)cc1)C(=O)O)OCc1ccccc1` [Z-Tyr], the “Activity for the substrate” value in data set [2] (Matsumura et al. 1985) is recorded as 0 Unit/mg; in data set [2], “lower activity”; in data set [3], “high activity”; in data set [3] (setting [9]), 650 Unit/mg.

With `O=S(=O)([O-])[O-].[Cu+2]` [CuSO4], in data set [1] (setting [8]), the Relative activity is 96.9%.

With `O=C(N[C@@H](CO)C(=O)O)OCc1ccccc1` [Z-Ser], the figures for the “Activity for the substrate” value in data set [2] (Matsumura et al. 1985) and in data set [3] (setting [9]) were 18 Unit/mg and 0 Unit/mg, respectively.
